The results in this text go back to US10201158B2, “Plant disease control composition and method for controlling plant disease by application of same” (MITSUI CHEMICALS AGRO, INC., priority 2014, dated 2019).

SMILES strings stand for the structures. Several values for one entry are separate records, joined by “and”; a condition that tells them apart may be missing. Identical values can stand only once. Like-named read-outs stand apart in the source and are kept apart here.

The subject of one test is Botrytis cinerea. The conditions noted are these: in vivo.
Another test concerns Puccinia recondita. The test is described as follows: Wheat brown rust preventive test. Format: in vivo. The note with it: Table 5, 8 days after inoculation. The procedure:
Wheat plants (variety: Norin 61 gou) planted in plastic pots having a diameter of 5 cm were grown indoors to the second to fourth leaf stage. Wettable powder containing the compounds indicated in Table 5 were sprayed in the same manner as in Test Example 1, and after the chemical had dried, a conidia suspension of Puccinia recondita was inoculated onto the leaves. Following inoculation, the pots were placed in the humidified chamber of an artificial inoculation room (20° C. to 23° C.), removed on the following day and then transferred to a greenhouse. Control effects were examined 8 days after inoculation. During the examination, the number of lesions on five leaves of the wheat plants was determined in accordance with the following incidence degree indicators, and control values and theoretical values as determined according to Colby's formula were calculated in the same manner as in Test Example 1.

For a further test, the system named is Pyricularia oryzae. Format: in vivo. The note with it: for Control value: Table 3-1.
The next test relates to Phytophthora infestans. Format: in vivo. The note with it: 5 days after inoculation; for Control value: Table 6-1.
The test system of another test is Blumeria graminis. The test is described as follows: Barley powdery mildew preventive test. Format: in vivo. The note with it: Table 4, 8 days after inoculation. The protocol: Barley plants (variety: Akashinriki) planted in plastic pots having a diameter of 5 cm were grown indoors to the second to fourth leaf stage. Wettable powder containing the compounds indicated in Table 4 were sprayed in the same manner as in Test Example 1, and after the chemical had dried, conidia of Blumeria graminis was inoculated onto the leaves. Following inoculation, the pots were transferred to a constant-temperature chamber (20° C. to 25° C.), and control effects were examined 8 days after inoculation.

Test [1] deals with Pseudoperonospora cubensis. The experiment in a line: Cucumber downy mildew preventive test. Format: in vivo. The note with it: Table 8; treatment concentration 10 ppm; 7 days after inoculation. The protocol: In a greenhouse, cucumber (variety: Sagamihanshiro) planted in a plastic pot having a diameter of 5 cm was grown to the 3rd to 5th-leaf stage. Spray was carried out in the same manner as in Test example 1, and after drying the chemical liquid, the pots were transferred into a greenhouse. After 3 days from the spray, a zoosporangium suspension of Pseudoperonospora cubensis was inoculated. After inoculation, the pots were placed in a high-humidity chamber (20 to 25° C.), transferred into a greenhouse on the next day, and controlling effects were examined after 7 days from the inoculation. A ratio of lesion area occupied per one leaf of cucumber was determined according to the same index as in Test example 1, and the control value and the theoretical value according to Colby's formula were similarly calculated.

A further test relates to Sphaerotheca fuliginea. The experiment in a line: Cucumber powdery mildew preventive test. Format: in vivo. The conditions noted are these: in vivo. The procedure: In a greenhouse, cucumber (variety: Sagamihanshiro) planted in a plastic pot having a diameter of 5 cm was grown to the 3rd to 5th-leaf stage. Spray was carried out in the same manner as in Test example 1, and 3 days after the spray, a conidia suspension prepared from Sphaerotheca fuliginea were inoculated on the leaf surface. After inoculation, the pots were placed in a thermostatic greenhouse (20 to 25° C.), and controlling effects were examined after 7 days from the inoculation. In the examination, a ratio of lesion area occupied per one leaf of cucumber was determined according to the same index as in Test example 1, and the control value and the theoretical value according to Colby's formula were similarly calculated.
Wettable powder prepared in compliance with Comparative Preparation Example 4 containing the compounds indicated in Table 7-9 were sprayed to the cucumber leaves, a conidiospore suspension prepared from Sphaerotheca fuliginea was inoculated onto the plants, and the controlling effects were examined in a manner similar to Test Example 6.

The mark [2] stands for this setting: treatment concentration 0.4 ppm.
The mark [3] stands for this setting: Table 3-2, treatment concentration 10 ppm.
Setting [4] is: Table 3-3, treatment concentration 10 ppm.
The mark [5] stands for this setting: Table 3-4, treatment concentration 10 ppm.
[6] abbreviates: Table 3-5 (Comparative Example 2), treatment concentration 10 ppm.
Where [7] appears, read: Table 6-2, treatment concentration 10 ppm.
Setting [8] is: Table 6-3, treatment concentration 10 ppm.

Turning to `Cn1nnnc1/C(=N\OCc1cccc(NC(=O)OC(C)(C)C)n1)c1ccccc1` [Picarbutrazox (b-78), Picarbutrazox], the Control value is given as 0 with Botrytis cinerea, 3 in the test with Puccinia recondita (setting [2]), 17 with Pyricularia oryzae (setting [2]) and 75 in the test with Phytophthora infestans (setting [2]).
In turn, `Cn1cc(C(=O)Nc2ccccc2-c2cc(F)c(F)c(F)c2)c(C(F)F)n1` [Fluxapyroxad (b-1), Fluxapyroxad] came in with a Preventive value with Botrytis cinerea of 33. The results for the Control value with Puccinia recondita (treatment concentration 2 ppm), in the test with Pyricularia oryzae (treatment concentration 2 ppm) and in the test with Blumeria graminis (treatment concentration 2 ppm) were 72, 17 and 61, respectively.
For the compound `CC1(C)N=C(c2cnc3ccccc3c2)c2ccccc2C1(F)F` [Compound B, 3-(4,4-difluoro-3,3-dimethyl-3,4-dihydroisoquinolin-1-yl)quinoline], the Control value is 57 in the test with Botrytis cinerea; 6 with Puccinia recondita (treatment concentration 10 ppm); 67 with Pyricularia oryzae (treatment concentration 10 ppm); 6 with Blumeria graminis (treatment concentration 10 ppm); 33 and 17 in the test on Sphaerotheca fuliginea; 13 in the test on Phytophthora infestans (treatment concentration 10 ppm). The Preventive value in the test on Botrytis cinerea was 77 and 70 and 73 and 80 and 67 and 40; in test [1] it was 23; with Pyricularia oryzae (setting [3]), 73; in the test with Pyricularia oryzae (setting [4]), 73; with Pyricularia oryzae (setting [5]) it was 67; in the test with Pyricularia oryzae (setting [6]), 67. Also, the Preventive value was 33 and 40 in the test on Sphaerotheca fuliginea; 33 in the test with Phytophthora infestans (setting [7]); 40 in the test on Phytophthora infestans (setting [8]).
In the case of `COc1cc(F)c(-c2c(Cl)nc(C)n2-c2cccc(F)c2)c(F)c1` [Compound of formula (XIV) (b-88)], the Control value stood at 14 with Botrytis cinerea, 42 with Puccinia recondita (treatment concentration 2 ppm), 50 with Pyricularia oryzae (treatment concentration 2 ppm) and 56 with Blumeria graminis (treatment concentration 2 ppm). Besides, the Preventive value was 50 in the test on Botrytis cinerea and 40 with Sphaerotheca fuliginea.
As to `CC1(C)N=C(c2cnc3ccccc3c2)c2cccc(F)c2C1(F)F` [Compound C, 3-(4,4,5-trifluoro-3,3-dimethyl-3,4-dihydroisoquinolin-1-yl)quinoline], the Control value in the test on Botrytis cinerea was 57; in the test with Puccinia recondita (treatment concentration 10 ppm), 8; with Pyricularia oryzae (treatment concentration 10 ppm), 67; with Blumeria graminis (treatment concentration 10 ppm), 6; in the test on Sphaerotheca fuliginea it was 33 and 17; in the test with Phytophthora infestans (treatment concentration 10 ppm), 4. Also, the Preventive value in the test on Botrytis cinerea was 73 and 60 and 70 and 77 and 67 and 40; in test [1] it was 17; with Pyricularia oryzae (setting [3]), 73; in the test on Pyricularia oryzae (setting [4]), 73; with Pyricularia oryzae (setting [5]), 67; in the test on Pyricularia oryzae (setting [6]), 67. The Preventive value in the test with Sphaerotheca fuliginea was 33 and 40; with Phytophthora infestans (setting [7]), 40; with Phytophthora infestans (setting [8]) it was 37.
For `O=C(Nc1ccccc1-c1ccc(F)c(F)c1)c1nccnc1C(F)(F)F` [Pyraziflumid (b-49), Pyraziflumid], the Preventive value in the test on Botrytis cinerea is given as 40. The Control value turned out to be 85 in the test with Puccinia recondita (treatment concentration 2 ppm) and 17 in the test on Pyricularia oryzae (treatment concentration 2 ppm).
For the compound `CC1(CCl)CCC(Cc2ccc(Cl)cc2)C1(O)Cn1cncn1` (stereo not drawn) [Compound of formula (VII)-1 (b-38)], the Control value with Botrytis cinerea was found to be 7; in the test with Puccinia recondita (treatment concentration 2 ppm) it was 69; in the test on Pyricularia oryzae (treatment concentration 2 ppm), 50; with Blumeria graminis (treatment concentration 2 ppm) it was 81.
On to `Cc1cc(OC(C)C)ccc1C(=O)C(C)(C)NC(=O)c1sccc1C` [Isofetamid (b-47), Isofetamid], for which the Control value worked out at 3 in the test with Puccinia recondita (treatment concentration 10 ppm), 17 in the test on Pyricularia oryzae (treatment concentration 10 ppm) and 67 in the test with Blumeria graminis (treatment concentration 10 ppm).
